Laboratory results published in US6787318B1, “Assay for evaluating the therapeutic effectiveness of agents in reducing Alzheimer's disease pathology” (Roskamp Research Institute, LLC, priority 1999, dated 2004).

Key:
IL-1β = assay: Human IL-1β release ELISA, HAEC with or without CD40 ligation; type: cell-based
Protocol: To examine if endothelial CD40 would be functional, cultured HAEC were plated at 5×10^4 cells/well in 6-well tissue culture plates (Nunc-Immuno™ Plate, Denmark) and incubated at 37° C. with human CD40L recombinant protein (CD40L, 0.5 ug/mL, kindly provided by Dr. Jean-Yves Bonnefoy, Glaxo Institute for Molecular Biology, Geneva) in fresh cultured media for eight hours, and cell-free supernatants were collected for IL-1β release assay. The assay for human IL-1β was performed in strict accordance with the manufacturer's instruction using the human Predicta™ IL-1β Kit (Genzyme). Absorbance at 450 nm was measured using a microplate spectrophotometer (SPECTRAmax 250, Molecular Devices, Sunnyvale, Calif.).
A second group of cells was subjected to these same treatments and incubated with CD40L ([…]) for eight hours following the initial 48 hour treatment period. IL-1β release was then quantified using a human IL-1β ELISA kit as described in materials and methods.

CD40 = CD40 cell ELISA on cultured HAEC; type: cell-based, human; settings: Aβ 50 nM to 10,000 nM; IFN-γ 5 to 500 U/mL; 48 hours
Protocol: To determine if CD40 expression on cultured HAEC was IFN-γ or Aβ dose-dependent, CD40 cell ELISA assays were performed according to published procedures. Briefly, cultured HAEC were plated at 2×10^4 cells/well in flat-bottom, 96-well tissue culture plates (Nunc-Immuno™ Plate, Denmark). […] Other HAEC were treated with a dose range (5 U/mL to 500 U/mL) of IFN-γ. […] Forty-eight hours post-treatment, plates were fixed overnight at 4° C. in 1% paraformaldehyde diluted in 1×PBS, washed three times with wash buffer (0.5% Tween 20 in 1×PBS), and subsequently incubated with […] of blocking buffer (10% fetal bovine serum in wash buffer) for one hour at 37° C. Cells were then treated with purified anti-human CD40 antibody ([…], PharMingen, Los Angeles, Calif.) in […] of blocking buffer for one hour at 37° C. Plates were washed four times with wash buffer. Biotinylated anti-mouse IgG1 (PharMingen, Los Angeles, Calif.; 1:2,000 dilution in blocking buffer, […]) was added and incubated for one hour at 37° C., followed by the addition of […] of a 1:3,000 dilution of HRP-Streptavidin (ZYMED, San Francisco, Calif.) for thirty minutes at 37° C. Plates were washed 4× with wash buffer and developed for twenty minutes at room temperature using the 3, 3′, 5, 5′-tetramethylbenzidine (TMB) one-step substrate system (DAKO, Carpinteria, Calif.) followed by the addition of 100 μL/well of 2N H2SO4 to stop the reaction. Absorbance was measured at 450 nm using a microplate spectrophotometer (SPECTRAmax 250, Molecular Devices, Sunnyvale, Calif.).

IFN-γR [1] = assay: IFN-γR expression in HASM cells, cell-ELISA (CELISA); type: cell-based, human; settings: Aβ-treated cells, 1 μg/ml mAb, four hours
Protocol: (§1) In vitro measurement of Aβ-induced changes in expression of the inflammatory cell-surface molecules CD40 and […] in cultured HAEC and HASM cells was performed using a slightly modified ABC-based cell-ELISA (CELISA). […] After PBS washes, 4% neutral formalin solution (Sigma) was used for fixation of the cells. Following quenching of the endogenous peroxidase activity with 3% H2O2 and routine blocking of non-specific binding, the biotinylated specific secondary antibodies against the primary antibodies (goat anti-mouse or anti-rabbit IgG) were applied. The combination of EXTRAVIDIN® Proxidase and the subsequent color reaction was performed strictly according to the manufacturer's instructions in the EXTRAVIDIN® Peroxidase Staining Kit (Sigma). The absorbance of 405 nm was then measured using a microplate reader (SPECTRAmax 250, Molecular Devices). The optical density (O.D.) value for the wells in the absence of the primary antibody for each group was considered as background and subtracted as the blank. In addition, stimulation with IFN-γ for CD40 was included as a positive control in the appropriate plate. Since CD45 is not expressed by endothelial or smooth muscle cells, the assays for expression of CD45 in these Aβ-treated cells were used as negative controls throughout the experiment. In addition, to evaluate the degree of cell death or proliferation in the Aβ-treated, cells, parallel experiments were performed using the MTS (3-(4,5-dimethylthiazol-2-yl)-5-(3-carboxymethoxyphenyl)-2-(4-sulfophenyl)-2H-tetrazolium) cell-proliferation kit (Promega).
(§2) Activation of CD40 signalling can be achieved by stimulation with either CD40L or certain anti-CD40 mAbs. Since synthetic CD40L is not commercially available, one of the anti-CD40 mAbs (clone 3/23), which has been reported to activate CD40 signalling, was used to mimic the effect of interaction of CD40-CD40L. All Aβ-treated cells were incubated with 1 μg/ml anti-CD40 mAb […]) for four hours followed by CELISA.

IFN-γR [2] = assay: IFN-γR expression in HAEC, cell-ELISA (CELISA) and Western blotting; type: cell-based, human
Protocol: as §1, §2
The total protein was estimated using the Bio-Rad protein assay. An aliquot corresponding to 100 μg of total protein of each sample was separated by SDS/PAGE (polyacrylamide gel electrophoresis) and transferred electrophoretically to PVDF filters. Non-specific binding of antibody was blocked with 5% non-fat dry milk, in 20 mM Tris/HCl, pH 7.5/150 mM NaCl/0.1% Triton X-100. Immunoblotting was carried out with the appropriate antibody followed by alkaline phosphatase-conjugated secondary anti-immunoglobulin antibodies. These were then developed by the chemiluminescence method (Bio-Rad).

**Q.** Which “IL-1β release following CD40 ligation” value (IL-1β; 48 hour pre-treatment, then CD40L for eight hours) does the source give for “Aβ1-42: amyloid β peptide 1-42, freshly solubilized” here?
**A.** synergistic effect

**Q.** And the “IL-1β release in the absence of CD40L stimulation” value (IL-1β; Aβ 500 nM, IFN-γ 10 U/mL, 48 hours)?
**A.** not sufficient to elicit IL-1β

**Q.** And the “dose dependence of endothelial CD40” value (CD40)?
**A.** marked increase in endothelial CD40 which is dose-dependent

**Q.** What about the “IFN-γR expression in HASM cells on CD40 ligation by mAb (3/23)” value (IFN-γR [1]) of the same substance?
**A.** additive

**Q.** And the “Aβ-induced IFN-γR expression in HAEC on CD40 ligation” value (IFN-γR [2]; 1 μg/ml mAb (3/23), four hours)?
**A.** significant effect

**Q.** What about the “IFN-γR expression in HAEC” value (IFN-γR [2]; 48 hours) of the same substance?
**A.** preferentially activates endothelial cells rather than smooth muscle cells
